These results are taken from PubChem BioAssay AID256 (DTP/NCI, 2004).

This assay deals with CD2F1 mice, L1210 leukemia ip, survival T/C. The assay can be described thus: NCI In Vivo Anticancer Drug Screen. Data for tumor model L1210 Leukemia (intraperitoneal) in CD2F1 (CDF1) mice. The note with it: higher = longer survival. In short, it runs like this:
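Activity against a transplanted murine tumor was judged by comparing the compound group with a vehicle group. The outcome in the treated animals was divided by that in the controls.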

Setting [1] is: endpoint: mean survival time, dose: 50.0 mg/kg/injection, schedule: Q01DX009 (ip), vehicle: saline with Tween-80.
Where [2] appears, read: endpoint: mean survival time, dose: 100.0 mg/kg/injection, schedule: Q01DX009 (ip), vehicle: saline with Tween-80.
[3] abbreviates: endpoint: mean survival time, dose: 200.0 mg/kg/injection, schedule: Q01DX009 (ip), vehicle: saline with Tween-80.
The mark [4] stands for this setting: endpoint: mean survival time, dose: 100.0 mg/kg/injection, schedule: Q04DX003 (ip), vehicle: saline with Tween-80.
[5] abbreviates: endpoint: mean survival time, dose: 200.0 mg/kg/injection, schedule: Q04DX003 (ip), vehicle: saline with Tween-80.
Where [6] appears, read: endpoint: mean survival time, dose: 400.0 mg/kg/injection, schedule: Q04DX003 (ip), vehicle: saline with Tween-80.
The mark [7] stands for this setting: endpoint: mean survival time, dose: 100.0 mg/kg/injection, schedule: Q01DX001 (ip), vehicle: saline with Tween-80.
The mark [8] stands for this setting: endpoint: mean survival time, dose: 200.0 mg/kg/injection, schedule: Q01DX001 (ip), vehicle: saline with Tween-80.
The mark [9] stands for this setting: endpoint: mean survival time, dose: 400.0 mg/kg/injection, schedule: Q01DX009 (ip), vehicle: saline with Tween-80.
[10] abbreviates: endpoint: mean survival time, dose: 400.0 mg/kg/injection, schedule: Q01DX001 (ip), vehicle: saline with Tween-80.

Values joined by “and” are separate entries in the source; they are usually repeats but may differ in a detail not shown here. Equal values may be shown once. Toxic doses and inconclusive results are not listed.

For the compound `Nc1ncn(C2CC(O)C(CO)O2)c(=O)n1` (stereo not given), the T/C by setting is: (endpoint: mean survival time, dose: 0.12 mg/kg/injection, schedule: Q01DX009 (ip), vehicle: saline) 160 % of control and 175 % of control; (endpoint: mean survival time, dose: 0.25 mg/kg/injection, schedule: Q01DX009 (ip), vehicle: Klucel (hydroxypropylcellulose) (HPC)) 195 % of control; (endpoint: mean survival time, dose: 0.25 mg/kg/injection, schedule: Q01DX009 (ip), vehicle: saline) 193 % of control and 221 % of control; (endpoint: mean survival time, dose: 0.5 mg/kg/injection, schedule: Q01DX009 (ip), vehicle: Klucel (hydroxypropylcellulose) (HPC)) 219 % of control; (endpoint: mean survival time, dose: 0.5 mg/kg/injection, schedule: Q01DX009 (ip), vehicle: saline) 229 % of control and 258 % of control; (endpoint: mean survival time, dose: 1.0 mg/kg/injection, schedule: Q01DX009 (ip), vehicle: Klucel (hydroxypropylcellulose) (HPC)) 227 % of control. For the same compound, the T/C is, setting by setting: (endpoint: mean survival time, dose: 1.0 mg/kg/injection, schedule: Q01DX009 (ip), vehicle: saline) 258 % of control and 296 % of control; (endpoint: mean survival time, dose: 4.0 mg/kg/injection, schedule: Q01DX009 (ip), vehicle: Klucel (hydroxypropylcellulose) (HPC)) 113 % of control; (endpoint: mean survival time, dose: 4.0 mg/kg/injection, schedule: Q01DX009 (ip), vehicle: saline) 121 % of control; (endpoint: mean survival time, dose: 8.0 mg/kg/injection, schedule: Q01DX009 (ip), vehicle: Klucel (hydroxypropylcellulose) (HPC)) 98 % of control; (endpoint: median survival time, dose: 0.25 mg/kg/injection, schedule: Q01DX009 (ip), vehicle: saline) 211 % of control; (endpoint: median survival time, dose: 0.5 mg/kg/injection, schedule: Q01DX009 (ip), vehicle: saline) 247 % of control. For the same compound, the T/C by setting is: (endpoint: median survival time, dose: 1.0 mg/kg/injection, schedule: Q01DX009 (ip), vehicle: saline) 297 % of control; (endpoint: median survival time, dose: 8.0 mg/kg/injection, schedule: Q01DX009 (ip), vehicle: saline) 117 % of control.
As to `Cc1n(Cc2ccc(Cl)cc2Cl)cc[n+]1Cc1ccccc1`, the T/C by setting is: (endpoint: mean survival time, dose: 10.0 mg/kg/injection, schedule: Q04DX003 (ip), vehicle: Klucel (hydroxypropylcellulose) (HPC)) 100 % of control; (endpoint: mean survival time, dose: 20.0 mg/kg/injection, schedule: Q04DX003 (ip), vehicle: Klucel (hydroxypropylcellulose) (HPC)) 105 % of control; (endpoint: mean survival time, dose: 40.0 mg/kg/injection, schedule: Q04DX003 (ip), vehicle: Klucel (hydroxypropylcellulose) (HPC)) 92 % of control.
As to `CC(=O)N1c2ccc(Br)cc2C(=O)C1C` (stereo not given), the T/C reads like this: (endpoint: mean survival time, dose: 100.0 mg/kg/injection, schedule: Q01DX001 (ip), vehicle: other) 98 % of control; (endpoint: mean survival time, dose: 200.0 mg/kg/injection, schedule: Q01DX001 (ip), vehicle: other) 104 % of control; (endpoint: mean survival time, dose: 400.0 mg/kg/injection, schedule: Q01DX001 (ip), vehicle: other) 95 % of control.
Take `OC1C2COC(O2)C(O)C1O` (stereo not given): the T/C reads like this: (endpoint: mean survival time, dose: 100.0 mg/kg/injection, schedule: Q01DX009 (ip), vehicle: saline) 98 % of control; (endpoint: mean survival time, dose: 200.0 mg/kg/injection, schedule: Q01DX009 (ip), vehicle: saline) 101 % of control; (endpoint: mean survival time, dose: 400.0 mg/kg/injection, schedule: Q01DX009 (ip), vehicle: saline) 98 % of control.
For the compound `CC(C)CCOC(=S)S.[Pt]`, the T/C (endpoint: mean survival time, dose: 9.37 mg/kg/injection, schedule: Q04DX003 (ip), vehicle: saline with Tween-80) is 112 % of control; the T/C (endpoint: mean survival time, dose: 18.75 mg/kg/injection, schedule: Q04DX003 (ip), vehicle: saline with Tween-80) is 96 % of control; the T/C (endpoint: mean survival time, dose: 37.5 mg/kg/injection, schedule: Q04DX003 (ip), vehicle: saline with Tween-80) was 96 % of control; the T/C (endpoint: mean survival time, dose: 75.0 mg/kg/injection, schedule: Q04DX003 (ip), vehicle: saline with Tween-80) was 104 % of control; the T/C (endpoint: mean survival time, dose: 150.0 mg/kg/injection, schedule: Q04DX003 (ip), vehicle: saline with Tween-80) is 96 % of control.
For the compound `CC(C)C(C(=O)c1ccccc1)C(c1ccccc1)c1ccccc1` (stereo not given), the T/C by setting is: (endpoint: mean survival time, dose: 100.0 mg/kg/injection, schedule: Q04DX003 (ip), vehicle: other) 106 % of control; (endpoint: mean survival time, dose: 200.0 mg/kg/injection, schedule: Q04DX003 (ip), vehicle: other) 97 % of control; (endpoint: mean survival time, dose: 400.0 mg/kg/injection, schedule: Q04DX003 (ip), vehicle: other) 100 % of control.
For the compound `Cc1cc([N+](=O)[O-])c(Cl)cc1NS(=O)(=O)c1ccccc1`, the T/C is 103 % of control under setting [1], 101 % of control under setting [2] and 94 % of control under setting [3].
In the case of `O=[N+]([O-])c1ccc(Cc2ncnc3c2ncn3C2OC(CO)C(O)C2O)cc1` (stereo not given), the T/C (endpoint: mean survival time, dose: 12.5 mg/kg/injection, schedule: Q01DX005 (ip), vehicle: distilled water + Tween-80) was 103 % of control; the T/C (endpoint: mean survival time, dose: 25.0 mg/kg/injection, schedule: Q01DX005 (ip), vehicle: distilled water + Tween-80) is 105 % of control; the T/C (endpoint: mean survival time, dose: 50.0 mg/kg/injection, schedule: Q01DX005 (ip), vehicle: distilled water + Tween-80) was 108 % of control; the T/C (endpoint: mean survival time, dose: 100.0 mg/kg/injection, schedule: Q01DX005 (ip), vehicle: distilled water + Tween-80) was 120 % of control; the T/C (endpoint: mean survival time, dose: 200.0 mg/kg/injection, schedule: Q01DX005 (ip), vehicle: distilled water + Tween-80) is 120 % of control.
For the compound `Cc1cccc(Cl)c1NC(=O)CS`, the T/C is, setting by setting: under setting [4], 98 % of control; under setting [5], 98 % of control; under setting [6], 98 % of control.
On to `CCOC(=O)Nc1cc(NC(c2ccc(Cl)cc2)c2ccc(Cl)cc2)c2[nH]cnc2n1`, for which the T/C (endpoint: mean survival time, dose: 75.0 mg/kg/injection, schedule: Q01DX001 (ip), vehicle: other) was 117 % of control.
On to `COc1ccc(C2NCCc3cc(OC)c(OC)cc32)cc1OC` (stereo not given), for which the T/C was 98 % of control (endpoint: mean survival time, dose: 12.5 mg/kg/injection, schedule: Q01DX009 (ip), vehicle: water); 98 % of control (endpoint: mean survival time, dose: 25.0 mg/kg/injection, schedule: Q01DX009 (ip), vehicle: water); 98 % of control (endpoint: mean survival time, dose: 50.0 mg/kg/injection, schedule: Q01DX009 (ip), vehicle: water); 106 % of control (endpoint: mean survival time, dose: 100.0 mg/kg/injection, schedule: Q01DX009 (ip), vehicle: water).
Regarding `CC(C)C(S(=O)(=O)c1ccccc1)S(=O)(=O)c1ccccc1`, the T/C by setting is: (endpoint: mean survival time, dose: 100.0 mg/kg/injection, schedule: Q01DX001 (ip), vehicle: saline) 105 % of control; (endpoint: mean survival time, dose: 200.0 mg/kg/injection, schedule: Q01DX001 (ip), vehicle: saline) 103 % of control; (endpoint: mean survival time, dose: 400.0 mg/kg/injection, schedule: Q01DX001 (ip), vehicle: saline) 96 % of control.
Take `O=C(/C=C/C(=O)OCCCl)OCCCl`: the T/C by setting is: under setting [4], 104 % of control; under setting [5], 96 % of control.
With `CC(C)N1CCOC1c1ccccc1` (stereo not given), the T/C is 101 % of control (endpoint: mean survival time, dose: 75.0 mg/kg/injection, schedule: Q01DX001 (ip), vehicle: saline); 101 % of control (endpoint: mean survival time, dose: 150.0 mg/kg/injection, schedule: Q01DX001 (ip), vehicle: saline); 97 % of control (endpoint: mean survival time, dose: 300.0 mg/kg/injection, schedule: Q01DX001 (ip), vehicle: saline).
`CCCCCCCCCC(=O)NC(=S)Nc1ccc(C(=O)OCCCC)cc1`: the T/C under setting [7] is 88 % of control; the T/C under setting [2] was 103 % of control; the T/C (endpoint: mean survival time, dose: 100.0 mg/kg/injection, schedule: Q04DX002 (ip), vehicle: saline with Tween-80) was 94 % of control and 103 % of control; the T/C under setting [4] was 90 % of control; the T/C under setting [8] is 86 % of control; the T/C under setting [3] is 92 % of control and 98 % of control. The T/C by setting is: (endpoint: mean survival time, dose: 200.0 mg/kg/injection, schedule: Q04DX002 (ip), vehicle: saline with Tween-80) 90 % of control and 100 % of control; under setting [5], 93 % of control; under setting [9], 89 % of control and 92 % of control; (endpoint: mean survival time, dose: 400.0 mg/kg/injection, schedule: Q04DX002 (ip), vehicle: saline with Tween-80) 90 % of control and 91 % of control; under setting [6], 93 % of control.
On to `Cc1cc(O)c(C(C)(C)C)cc1C(c1ccccc1)c1cc(C(C)(C)C)c(O)cc1C`, for which the T/C is, setting by setting: under setting [7], 93 % of control; under setting [8], 93 % of control; under setting [10], 95 % of control.
`CCN=Cc1ccccc1O.CCN=Cc1ccccc1O.[Pd]`: the T/C runs as follows: under setting [7], 106 % of control; under setting [8], 95 % of control; under setting [10], 95 % of control.
As for `CCc1ccccc1NC(=O)/C=C/C(=O)O`, the T/C is 102 % of control under setting [2]; 98 % of control under setting [4]; 100 % of control under setting [3]; 102 % of control under setting [9]; 92 % of control under setting [6].
For `CCNC(=O)OCc1c(COC(=O)NCC)c(-c2ccc(Cl)c(Cl)c2)n2c1CCC2`, the T/C is, setting by setting: (endpoint: mean survival time, dose: 0.78 mg/kg/injection, schedule: Q01DX009 (ip), vehicle: saline with Tween-80) 101 % of control; (endpoint: mean survival time, dose: 1.56 mg/kg/injection, schedule: Q01DX009 (ip), vehicle: saline with Tween-80) 108 % of control; under setting [1], 91 % of control and 94 % of control and 111 % of control.
